Data published in PubChem BioAssay (NCI).
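Cultured in 96-well plates, cells were exposed to test compound for 48 hours across five concentrations. GI50 is the concentration that inhibits growth by half. Definition used: TGI = concentration required for complete inhibition of growth.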

How the values were obtained:
Test in all cases: DTP human tumour cell line panel, 48 h
UACC-257 melanoma = system: UACC-257 melanoma
MALME-3M melanoma = system: MALME-3M melanoma
HCT-15 colon = system: HCT-15 colon
M14 melanoma = system: M14 melanoma
UACC-62 melanoma = system: UACC-62 melanoma
NCI-H460 lung = system: NCI-H460 lung
NCI/ADR-RES ovarian = system: NCI/ADR-RES ovarian
MCF7 breast = system: MCF7 breast
U251 CNS = system: U251 CNS
786-0 renal = system: 786-0 renal
OVCAR-3 ovarian = system: OVCAR-3 ovarian
MOLT-4 leukemia = system: MOLT-4 leukemia
NCI-H23 lung = system: NCI-H23 lung
RXF 393 renal = system: RXF 393 renal

Structure (SMILES) | TGI (UACC-257 melanoma) [µM] | TGI (MALME-3M melanoma) [µM] | TGI (HCT-15 colon) [µM] | TGI (M14 melanoma) [µM] | TGI (UACC-62 melanoma) [µM] | TGI (NCI-H460 lung) [µM] | TGI (NCI/ADR-RES ovarian) [µM] | TGI (MCF7 breast) [µM] | TGI (U251 CNS) [µM] | TGI (786-0 renal) [µM] | TGI (OVCAR-3 ovarian) [µM] | TGI (MOLT-4 leukemia) [µM] | TGI (NCI-H23 lung) [µM] | TGI (RXF 393 renal) [µM] | GI50 (NCI-H460 lung) [µM] | GI50 (U251 CNS) [µM] | GI50 (OVCAR-3 ovarian) [µM]
Cc1ncc([N+](=O)[O-])n1CCNC(=O)Cn1ccnc1[N+](=O)[O-] | > 100 | > 100 | > 100 | > 100 | > 100 | > 100 | > 100 | > 100 | > 100 | > 100 | > 100 | > 100 | > 100 | – | – | – | –
O=c1[nH]cc(COCC(O)CO)c(=O)[nH]1 (stereo not drawn) | > 100 | > 100 | > 100 | > 100 | > 100 | > 100 | – | – | > 100 | > 100 | > 100 | > 100 | > 100 | > 100 | – | – | –
O=c1cc(-c2ccc3ccccc3c2)[nH]c2ncccc12 | > 100 | > 100 | > 100 | > 100 | > 100 | > 100 | > 100 | > 100 | > 100 | > 100 | > 100 | > 100 | > 100 | – | 3.79 | 4.35 | 8.25
COc1ccc2c(c1)C1c3ccccc3CCN1CCC2 (stereo not drawn) | > 100 | – | > 100 | > 100 | > 100 | – | > 100 | > 100 | > 100 | > 100 | > 100 | > 100 | > 100 | > 100 | – | – | –
O=C1OC(C2Cc3ccc4c(c3C2=O)CCCC4)c2ccccc21 (stereo not drawn) | > 100 | > 100 | > 100 | > 100 | 69.9 | > 100 | > 100 | > 100 | > 100 | > 100 | 88.2 | 47.5 | > 100 | – | – | – | –
COC(=O)C1Cc2c([nH]c3ccccc23)-c2[nH]c3ccccc3c2CC(NC(C)=O)C(=O)NCC(=O)NCC(=O)N1 (stereo not drawn) | > 100 | > 100 | > 100 | > 100 | > 100 | > 100 | > 100 | – | > 100 | > 100 | > 100 | > 100 | > 100 | > 100 | – | – | –
COC1=CC(=O)c2c(n[nH]c2CCNC(=O)OCc2ccccc2)C1=O | 28.3 | 6.5 | 30.8 | 26.7 | 19.9 | 31.3 | > 100 | 22.2 | 26 | 31.3 | 32.2 | 51.4 | 15.5 | – | – | – | –
COc1ccc(OC2OC(CO)C(O)C(O)C2O)cc1 (stereo not drawn) | > 100 | > 100 | > 100 | > 100 | > 100 | > 100 | > 100 | > 100 | > 100 | > 100 | > 100 | > 100 | > 100 | – | – | – | –
COc1ccc(-c2cc(=O)c3ccc(F)cc3[nH]2)cc1 | > 100 | > 100 | – | > 100 | > 100 | > 100 | – | – | – | > 100 | > 100 | > 100 | > 100 | > 100 | – | – | –
Oc1ccc2ccccc2c1NCn1nc(CCCCCCCCc2nn(CNc3c(O)ccc4ccccc34)c(=S)o2)oc1=S | > 100 | > 100 | > 100 | > 100 | > 100 | > 100 | > 100 | > 100 | > 100 | > 100 | – | > 100 | > 100 | – | – | – | –
C=CCN(N=O)C(=O)N(CCCCC(NC(C)=O)C(=O)NCc1ccccc1)Cc1ccccc1 (stereo not drawn) | > 100 | 58.9 | > 100 | 62.4 | > 100 | > 100 | – | – | > 100 | > 100 | > 100 | 45.4 | > 100 | 93.1 | – | – | –
CC1(C)CC2C(/C1=N/O)C1(C)CCCC2(C)C1O (stereo not drawn) | > 100 | > 100 | > 100 | > 100 | > 100 | > 100 | > 100 | > 100 | > 100 | > 100 | > 100 | > 100 | > 100 | – | – | – | –
O=C1COc2cc3c(cc2N1)SCCC(=O)N3 | > 100 | > 100 | – | > 100 | > 100 | – | – | – | – | > 100 | > 100 | > 100 | > 100 | – | – | – | –
Oc1ccccc1-c1n[nH]c(-c2ccccc2O)n1 | – | > 100 | > 33.6 | > 100 | > 100 | > 100 | > 100 | > 100 | > 100 | > 100 | – | > 100 | – | > 100 | – | – | –
CC1CN=C(NS(=O)(=O)c2cc(C(=O)Nc3ccccc3)c(Cl)cc2S)NN1 (stereo not drawn) | > 100 | 77 | > 100 | > 100 | > 100 | > 100 | > 100 | > 100 | > 100 | > 100 | > 100 | > 100 | > 100 | – | – | – | –
O=C(Nc1ccccc1[N+](=O)[O-])C(=O)C(C(=O)c1ccccc1-c1ccccc1)C1OC(=O)c2ccccc21 (stereo not drawn) | 33 | 29.9 | 30 | 28.9 | 32.8 | 30.7 | – | – | 24.2 | 28.6 | 28 | 85.4 | 33.6 | 25.9 | – | – | –
O=C(NN1C(=O)C(Cl)C1c1cccc(Cl)c1)c1ccccc1O (stereo not drawn) | > 100 | > 100 | > 100 | > 100 | > 100 | > 100 | – | – | > 100 | > 100 | > 100 | > 100 | > 100 | > 100 | – | – | –
